Values joined by “and” are separate entries in the source; they are usually repeats but may differ in a detail not shown here. Equal entries are not always repeated.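 All cell lines were grown in 96-well plates and treated with compound for 48 hours. GI50 is the concentration that inhibits growth by half. TGI is the concentration that stops growth completely.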
Columns and labels:
Test in all cases: NCI-60 cell line screen, 48 h
SK-MEL-28 melanoma = system: SK-MEL-28 melanoma
CAKI-1 renal = system: CAKI-1 renal
SK-MEL-2 melanoma = system: SK-MEL-2 melanoma
A549 NSCLC = system: A549 NSCLC
OVCAR-4 ovarian = system: OVCAR-4 ovarian
SNB-75 CNS = system: SNB-75 CNS
HL-60(TB) leukemia = system: HL-60(TB) leukemia
A498 renal = system: A498 renal
KM12 colon = system: KM12 colon
SR leukemia = system: SR leukemia

SMILES	TGI (SK-MEL-28 melanoma) [µM]	TGI (CAKI-1 renal) [µM]	TGI (SK-MEL-2 melanoma)	TGI (A549 NSCLC) [µM]	TGI (OVCAR-4 ovarian) [µM]	TGI (SNB-75 CNS) [µM]	TGI (HL-60(TB) leukemia) [µM]	TGI (A498 renal)	TGI (KM12 colon) [µM]	GI50 (SK-MEL-28 melanoma)	GI50 (CAKI-1 renal) [nM]	GI50 (SR leukemia) [nM]	TGI (SR leukemia) [µM]	GI50 (SK-MEL-2 melanoma)	GI50 (A549 NSCLC) [nM]	GI50 (HL-60(TB) leukemia) [nM]	GI50 (A498 renal)	GI50 (KM12 colon) [nM]	GI50 (OVCAR-4 ovarian) [µM]	GI50 (SNB-75 CNS) [nM]
O=C1CC2=CCCC2O1 (stereo not drawn)	> 100	> 100	> 100 µM	> 100	> 100	> 100	> 100	> 100 µM	> 100	–	–	–	–	–	–	–	–	–	–	–
NC(=O)c1c(NC(=O)c2ccc(C(F)(F)F)cc2Cl)sc2c1CCC(=O)C2	2.04	0.881	5.37 µM	14.4	–	–	1.09	6.37 µM	1.73	0.531 µM	244	305	> 100	1.87 µM	2690	273	1.95 µM	382	–	–
COc1cc(Br)c(C=Nc2cccc3ccc(OS(=O)(=O)c4ccc([N+](=O)[O-])cc4)cc23)cc1OC	> 100	> 100	> 100 µM	> 100	> 100	–	–	> 100 µM	> 100	–	–	–	> 100	–	–	–	–	–	–	–
COc1ccc(-c2cc(-c3ccco3)c(C#N)c(=O)n2C2OC(COC(C)=O)C(OC(C)=O)C(OC(C)=O)C2OC(C)=O)cc1 (stereo not drawn)	> 100	> 100	> 100 µM and 50.8 µM	> 100	> 100	> 100	–	> 100 µM and 75.8 µM	> 100	> 100 µM and 26.7 µM	–	–	> 100	> 100 µM and 14.5 µM	–	–	> 100 µM and 22 µM	–	–	–
COc1cc(/C=C2\CC3C4CC=C5C[C@@H](N6CCCC6)CC[C@]5(C)C4CC[C@]3(C)[C@H]2OC(C)=O)ccc1OCCCn1ccnc1 (stereo partly drawn)	> 50	2.63	> 50 µM	10.3	–	–	1.31	5.18 µM	4.02	0.157 µM	641	–	–	7.54 µM	2790	393	2.66 µM	630	–	–
CC(C)OC(=O)NNc1c(Cl)cc(Cl)cc1Cl	> 100	> 100	> 100 µM	> 100	–	> 100	> 100	> 100 µM	> 100	–	–	–	> 100	–	–	–	–	–	–	–
COC(=O)N1C=CC2=C(C)C3Nc4ccccc4C3C(C)=C2C1 (stereo not drawn)	> 100	> 100	2.95 µM	16.8	11.3	9.54	11.9	> 100 µM	–	–	–	–	–	–	–	–	–	–	–	–
COc1ccc(/C(=N/O)c2cc(F)c(F)c(OC)c2F)cc1O	> 100	> 100	> 100 µM	> 100	> 100	> 100	–	> 100 µM	> 100	10.8 µM	538	241	34.1	0.421 µM	1060	–	3.79 µM	396	9.1	309
CC1Nc2ccccc2NC1C=C(C#N)C#N (stereo not drawn)	31	28.9	37.7 µM	54.1	31.6	30.3	4.69	–	31.9	–	–	–	22.4	–	–	–	–	–	–	–
